In PubChem BioAssay AID179 (DTP/NCI, 2004):
Several values for one entry are separate records, joined by “and”; a condition that tells them apart may be missing. Equal entries are not always repeated. Activity calls are given as the source filed them.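 Rule for the calls: active = compounds giving half or more protection of infected cells from virus-caused growth loss, again on retest; inactive = the rest.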

Tested on: CEM cells HIV-1 protection, formazan growth assay
Assay: NCI AIDS Antiviral Assay
Conditions: for IC50: measured here: growth of uninfected CEM cells
Summary of the method: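 Protection of CEM cells against HIV-1 was scored from cell growth (soluble formazan) across five concentrations, with parallel uninfected cells. Lack of protection may reflect toxicity.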

Row | Structure (SMILES) | EC50 | IC50 | outcome
1 | Nc1ccc(C2SCC(=O)N2NS(=O)(=O)c2cccc(C(=O)O)c2)cc1 (stereo unspecified) | 36.3 µM | 132 µM | –
2 | CCN1c2ccccc2-c2c3c1cc(C)cc3c1ccccc1[n+]2CC | – | – | inactive
3 | CC(=O)NC1C(O)CC(O)(C(=O)O)OC1C(O)C(O)CO (stereo unspecified) | – | – | inactive
4 | O=c1c2cc(-c3ccccc3)cnc2sn1-c1ccc([N+](=O)[O-])cc1 | > 200 µM | 39.8 µM | –
5 | Cc1ccc(N=c2oc3c(ccc4ccccc43)nc2Nc2ccc(C)cc2)cc1 | > 200 µM | > 200 µM | –
6 | COC(=O)C(=O)c1c2ccccc2n2ccc3c4ccccc4[nH]c3c12 | > 200 µM | 83.2 µM | –
7 | CC1CCOn2c1nc1ccccc1c2=O (stereo unspecified) | > 33.1 µM | > 33.1 µM | –
8 | COc1ccc(N)c(CC2c3ccccc3CCN2C)c1 (stereo unspecified) | – | – | inactive
9 | COc1cc2ccc3c4cc(OC)c(OC(C)C)cc4cnc3c2cc1OC | – | – | inactive
10 | Cc1ccc2c(c1)nc(N)n[n+]2[O-] | > 100 µM | > 100 µM | –
11 | CCCNC(=S)/N=C/c1c(O)cc(C)oc1=O | > 200 µM | > 200 µM | –
12 | Cc1ccc2oc(=O)c(C#N)c(/C=C/c3cccc(Br)c3)c2c1 | > 100 µM | > 100 µM | –
13 | CCOP(=S)(NN=C1CCCCC1)OCC | > 200 µM | 112 µM | –
14 | O=C(O)c1nc2cc(Cl)ccc2[nH]c1=O | > 200 µM | > 200 µM | –
15 | C1=C(c2ccccc2)NC2=N[C@H]3CCCC[C@@H]3N2C1c1ccccc1 (stereo partly specified) | > 126 µM | 8.13 µM | –
16 | CCC(C)[C@H](NC(=O)N[C@H](C)c1ccccc1)C(=O)OC (stereo partly specified) | > 200 µM | > 200 µM | –
17 | CC1(C)CC2(C)OC(=N)C1(C#N)C2(C#N)C#N (stereo unspecified) | > 200 µM | 2.34 µM | –
18 | Nc1ccc(C(=O)NN2C(=O)C(Cl)C2c2cccc([N+](=O)[O-])c2)cc1 (stereo unspecified) | > 200 µM | 10.2 µM | –

Row | Structure (SMILES) | EC50 | IC50 | outcome
19 | O=C(Cc1nc2ccccc2c(=O)n1-c1c(Cl)cccc1Cl)c1ccncc1 | > 12.6 µM | > 12.6 µM | –
20 | COc1cc(NCC(C#N)C#N)ccc1N=Nc1ccc([N+](=O)[O-])cc1 | > 38.9 µM | > 38.9 µM | –
21 | CC1(C)CCCCCCCCCC2CC2CCC(C)(C)C1=O (stereo unspecified) | > 200 µM | > 100 µM | –
22 | CCOC(=O)C(Cc1ccccc1)NC(=O)c1ccc(N=NN(C)C)cc1 (stereo unspecified) | > 51.3 µM | > 51.3 µM | –
23 | CC1=CC2C(=O)N(c3ccccc3)C(=O)C2CC1n1[nH]c(=O)n(Cc2ccccc2)c1=O (stereo unspecified) | > 302 µM | > 302 µM | –
24 | O=[N+]([O-])c1ccc(-c2csc(=[N+]3CCCCC3)s2)cc1 | – | – | inactive
25 | CCC1=[N+]([O-])C(C)(C)NC1(C)C | > 200 µM | > 200 µM | –
26 | COC1(OC)C2(Cl)C(Cl)=C(Cl)C1(Cl)C1C2C2CC1(C(=O)O)c1ccccc12 (stereo unspecified) | > 251 µM | 13.5 µM | –
27 | CN1C=C(C(N)=O)C2CC(O)[C@@](NC(=O)CS(N)(=O)=O)(C(=O)O)C2C1 (stereo partly specified) | > 166 µM | 3.72 µM | –
28 | CC1=CC(c2ccccc2)n2c(nc3cc4ccccc4cc32)N1 (stereo unspecified) | > 200 µM | > 200 µM | –
29 | CC1CC(C)(C)N=C(C(C)CC(C)(C)C)O1 (stereo unspecified) | > 200 µM | 60.3 µM | –
30 | CC1(C)C2CC(=O)C1(C)C(OCc1ccccc1)C2 (stereo unspecified) | – | – | inactive
31 | CC(C)CCCC(C)[C@H]1CC[C@H]2[C@@H]3CC[C@H]4C[C@@H](CCCC(c5cc(Cl)c(OCc6ccc(C(=O)O)cc6)c(C(=O)O)c5)c5cc(Cl)c(OCc6ccc(C(=O)O)cc6)c(C(=O)O)c5)CC[C@]4(C)[C@H]3CC[C@]12C (stereo partly specified) | 20.4 µM and 3.39 µM | > 200 µM and 20 µM | –
32 | COCn1c(C(=O)c2ccccc2)c(C)c(=O)[nH]c1=O | 70.8 µM | > 200 µM | –
33 | Cc1ncc(CO)c(CO)c1OCC(O)CN1CCN(c2ccc(F)cc2)CC1 (stereo unspecified) | > 200 µM | 97.7 µM | –
34 | CCCCCCCCOC(=O)CC(C(=O)OCCCCCCCC)S(=O)(=O)O (stereo unspecified) | > 200 µM | 117 µM | –
35 | O=C(O)c1cc(I)cc(I)c1O | > 646 µM | 107 µM | –
36 | O=C(O)COc1ccc(S(=O)(=O)c2ccc(OCC(=O)O)c([N+](=O)[O-])c2)cc1[N+](=O)[O-] | > 200 µM | > 200 µM | –
